Laboratory results as given in patent US10041047B2, “Compositions and methods for epithelial stem cell expansion and culture” (The Brigham and Women's Hospital, Inc., priority 2013, dated 2018).

Tests used:
[1] = system: Lgr5+ stem cells from the colon; test: Colon crypt culture, Lgr5-GFP expression; type: cell-based, mouse; details: colon crypts (FIG. 3F)
Source text: FIGS. 3A and 3B depict colony numbers and live single cell numbers, respectively, from triplicate wells enumerated at each time point. Error bars indicate S.D. In FIG. 3A, the series are, from left to right, Day 0, Day 2, Day 4, Day 6, Day 8, and Day 10. FIG. 3C depicts FACS sorting of freshly isolated single Lgr5-GFP+ cells. A GFP^high single cell population was collected. Representative FACS analysis and the gating strategy to define the GFP+ cell population is shown. […] The GFP-population represents Lgr5- cells as well as Lgr5+/GFP- cells (i.e. GFP silenced stem cells), which is present in all unsorted crypt cultures, but not in sorted single Lgr5-GFP cell cultures (See FIG. 2C). A total of 10,000 live cells were analyzed for each sample. FIG. 3D depicts growth factor requirements for self-renewal of Lgr5+ stem cells in the CV culture condition. Crypts were cultured for 6 days in the presence of CHIR and VPA, with EGF, Noggin, R-spondin 1 and their combinations, as indicated. E: EGF (50 ng/ml); N: Noggin (100 ng/ml); R: R-spondin 1 (500 ng/ml); […] (1 mM). FIG. 3E depicts crypts cultured for 6 days in multiple conditions as indicated. GFP and brightfield images are shown. Scale bars: 200 μm. FIG. 3F depicts morphology and Lgr5-GFP expression of colon crypts cultured in ENR, ENR-C and ENR-CV conditions. […]

[2] = system: human small intestinal crypts; test: Culture of human small intestinal crypts: LGR5 expression (RT-PCR) and cell number; type: cell-based; details: cell numbers at day 9 after seeding (FIG. 25A)
Source text: Human small intestinal crypts were isolated from a resected normal small intestinal specimen and cultured as described in Example 1. The same cell culture solutions used in the culture of mouse small intestinal stem cells/crypts, which comprise a combination of CHIR99021 and VPA or Tubastatin A added to the ENR (EGF, Noggin, R-Spondin 1) condition, were compared to published cell culture solutions for human intestinal stem cells/crypts (Jung et al., 2011; Sato et al., 2011). RT-PCR was used to assess the maintenance of epithelial stem cells in the culture, specifically by determining the self-renewal or differentiation status. LGR5 was used as a stem cell marker and ALPI, MUC2, CHGA and LYZ were used as differentiation markers. Cell growth was assessed by counting the cell number in the cultures and by observing the morphology and size of colonies.

CCCC(CCC)C(=O)O [Valproic Acid]
GFP expression of Lgr5+ stem cells from the colon [1]: promoted GFP expression
proliferation of human small intestinal crypts (cell number) [2]: increased cell proliferation
